Assays:
[1] = Crystallization of purified AHK4 in the presence of tZr (difference density in ligand binding pocket); type: physicochemical; conditions: no difference density for the ribose portion of tZr in the crystal complex
From the text: Protein Expression and Purification. A synthetic gene comprising the sensor domain of AHK4 (residues 126-395, numbering in accordance with the short splice-variant of AHK4) was codon-optimised for expression in E. coli (Geneart, Regensburg, Germany). The Ncol/Notl digested synthetic fragment was inserted into a modified pET21d (Novagen) plasmid providing N-terminal 7xHis and Strep II affinity tags and expressed as a SUMO fusion protein in E. coli Origami (DE3) cells (Novagen). Cells grown to an OD600nm of 0.8 were induced with 0.3 mM isopropyl-β-D-thiogalactopyranoside in Terrific Broth at 16° C. for 22 h. Cells were collected by centrifugation at 4,500 xg for 30 min, washed in PBS buffer, incubated with 100 mg lysozyme for 1 h at room temperature and snap-frozen in liquid nitrogen. For protein purification cells were thawn in buffer A (25 mM Tris, pH 7.6, 500 mM NaCl, 15 mM Imidazole and, if applicable, 0.1 mM of the respective cytokinin), lysed by sonication, and centrifuged at 75,000 xg for 90 min. The supernatant was incubated in batch with 5 mL HIS-Select Cobalt Affinity Gel (Sigma), washed with buffer A and eluted in buffer A supplemented with 200 mM imidazole. The fusion protein was dialysed against buffer B (25 mM Tris, pH 8.0, 300 mM NaCl, 1 mM EDTA) and then loaded onto a 1 mL Strep-Tactin Superflow high capacity cartridge (IBA, Gottingen, Germany). […]

AHK4 = target: T1, AHK4 (Arabidopsis thaliana, UniProt Q9C5U0); conditions: literature result, Romanov et al., J. Exp. Bot. 57:4051-4058 (2006); cited from earlier work
T1 construct: host or cells: E. coli
T1 sequence (Q9C5U0 24-1080 limits assumed): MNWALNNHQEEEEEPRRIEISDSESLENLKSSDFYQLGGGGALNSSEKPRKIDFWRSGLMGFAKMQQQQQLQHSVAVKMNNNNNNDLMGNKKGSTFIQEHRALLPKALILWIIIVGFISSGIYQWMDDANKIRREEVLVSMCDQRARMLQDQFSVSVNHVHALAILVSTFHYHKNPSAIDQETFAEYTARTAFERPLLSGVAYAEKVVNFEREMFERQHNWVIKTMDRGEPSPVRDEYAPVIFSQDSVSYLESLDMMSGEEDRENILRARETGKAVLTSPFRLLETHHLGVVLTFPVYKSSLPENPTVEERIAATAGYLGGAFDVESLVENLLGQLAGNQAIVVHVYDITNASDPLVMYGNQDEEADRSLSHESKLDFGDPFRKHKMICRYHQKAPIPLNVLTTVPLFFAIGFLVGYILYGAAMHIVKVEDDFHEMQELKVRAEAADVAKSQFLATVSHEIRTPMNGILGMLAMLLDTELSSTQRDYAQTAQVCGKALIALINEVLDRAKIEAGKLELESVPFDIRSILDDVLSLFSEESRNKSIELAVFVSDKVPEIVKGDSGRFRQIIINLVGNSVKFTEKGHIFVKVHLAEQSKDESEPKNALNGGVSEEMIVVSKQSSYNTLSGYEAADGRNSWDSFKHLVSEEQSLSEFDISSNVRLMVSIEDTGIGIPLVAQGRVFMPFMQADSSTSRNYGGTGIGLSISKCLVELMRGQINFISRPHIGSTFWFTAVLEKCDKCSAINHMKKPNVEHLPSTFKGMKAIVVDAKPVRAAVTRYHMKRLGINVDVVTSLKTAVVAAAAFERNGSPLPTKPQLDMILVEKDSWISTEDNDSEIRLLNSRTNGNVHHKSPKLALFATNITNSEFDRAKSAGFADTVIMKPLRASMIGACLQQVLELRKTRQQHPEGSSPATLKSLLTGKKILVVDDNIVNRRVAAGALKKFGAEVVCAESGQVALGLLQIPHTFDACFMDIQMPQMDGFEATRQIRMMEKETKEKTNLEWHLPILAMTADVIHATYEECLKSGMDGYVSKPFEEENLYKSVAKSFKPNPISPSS

C/C(=C\CNc1ncnc2c1ncn2[C@@H]1O[C@H](CO)[C@@H](O)[C@H]1O)CO (relative stereo) [tZr, trans-zeatin riboside]
stability of ligand during purification with AHK4 [1]: underwent hydrolysis during purification | binding affinity to AHK4 (AHK4): high affinity

Source: patent publication US20130004966A1, “STRUCTURE OF CYTOKININS AND CYTOKININ RECEPTORS, AND MODULATION OF CYTOKININ SIGNALING” (Salk Institute for Biological Studies (027731), priority 2011, published 2013)
